Where two headings read alike, the source gives them in different places.
What was measured:
[1] = molecular target: T1, glycerol-3-phosphate dehydrogenase (GPDH) (Rattus norvegicus, UniProt P35571); experiment: High-throughput screen: ROS production from glycerol-3-phosphate dehydrogenase (GPDH); type: biochemical; parameters: inhibition: dose or concentration left out as unconfirmed; settings: for inhibition at 2.5 µM: Table 6, 25 mM glycerol phosphate, rotenone, antimycin A, malonate, myxothiazol, compounds 2.5 μM, scaled to IQ positive controls, read-out: % Reduction in ROS Production (GPDH); for inhibition: Table 7; for inhibition / GPDH: percent change in ROS from DMSO controls
T1 construct: The activity of GPDH in intact mitochondria (0.3 mg/mL) was measured; from tissue; host or cells: rat skeletal muscle mitochondria (Wistar, Harlan Laboratories)
T1 sequence (P35571 43-727): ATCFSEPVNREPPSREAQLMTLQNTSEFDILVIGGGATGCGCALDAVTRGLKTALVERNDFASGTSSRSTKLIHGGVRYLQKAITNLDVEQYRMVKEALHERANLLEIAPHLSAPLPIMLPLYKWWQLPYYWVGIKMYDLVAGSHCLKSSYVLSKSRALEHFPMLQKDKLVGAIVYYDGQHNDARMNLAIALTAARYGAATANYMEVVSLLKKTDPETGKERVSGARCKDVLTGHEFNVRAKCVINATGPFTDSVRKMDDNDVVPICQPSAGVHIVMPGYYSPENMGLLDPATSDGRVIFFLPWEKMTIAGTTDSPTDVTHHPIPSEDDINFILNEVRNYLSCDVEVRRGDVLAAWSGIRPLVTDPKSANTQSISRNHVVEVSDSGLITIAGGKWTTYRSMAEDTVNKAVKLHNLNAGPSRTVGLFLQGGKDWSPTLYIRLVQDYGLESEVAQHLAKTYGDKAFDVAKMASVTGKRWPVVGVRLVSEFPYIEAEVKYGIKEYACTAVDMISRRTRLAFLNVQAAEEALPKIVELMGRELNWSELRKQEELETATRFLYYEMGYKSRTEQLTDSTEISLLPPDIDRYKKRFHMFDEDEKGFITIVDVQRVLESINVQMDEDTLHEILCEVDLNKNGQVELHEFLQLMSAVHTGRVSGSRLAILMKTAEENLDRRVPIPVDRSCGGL

[2] = system: mitochondrial membrane potential (ΔΨm); experiment: Membrane potential (ΔΨm) counterscreen with TMRM; settings: malate, nigericin
[3] = molecular target: T2, outer ubiquinone binding site of complex III (IIIQO) (Rattus norvegicus, UniProt P00159+P20788); experiment: High-throughput screen: ROS production from outer ubiquinone binding site of complex III (IIIQO); type: biochemical; settings: for IIIQO: Table 8
T2 construct: freshly isolated muscle mitochondria were assayed; from tissue; host or cells: rat skeletal muscle mitochondria (Wistar, Harlan Laboratories)

[4] = molecular target: T3, flavin binding site of complex I (IF) (Rattus norvegicus, UniProt Q5XIH3); experiment: High-throughput screen: ROS production from flavin binding site of complex I (IF); type: biochemical; settings: for inhibition at 2.5 µM: Table 7, read-out: IF; for inhibition at 2.5 µM / IF: percent change in ROS from DMSO controls
T3 construct: freshly isolated muscle mitochondria were assayed; from tissue; host or cells: rat skeletal muscle mitochondria (Wistar, Harlan Laboratories)
Experimental: (§1) Skeletal muscle mitochondria were isolated from 5-8 week old female Wistar rats (Harlan Laboratories). Minced muscle was homogenized in buffer containing bacterial protease Type VIII prior to differential centrifugation to separate mitochondria from other tissue components. Unless otherwise stated, freshly isolated muscle mitochondria were assayed in buffer containing 120 mM KCl, 5 mM HEPES, 1 mM EGTA, 0.3% (w/v) bovine serum albumin. Where indicated, CaCl2 was added to yield a final free concentration of 250 nM calcium at pH 7.0 at 37° C.
Master screening plates were prepared using a Biomek FX liquid handling workstation (Beckman) to transfer 1 μL of each compound into individual wells on 96-well storage plates (80 compounds per plate). […] Just prior to use, plates were brought to room temperature and diluted 300-fold with standard buffer (13.3X=33.3 μM). To monitor the performance of each assay throughout screening and to provide intra-plate normalization reference points, DMSO negative controls and known mitochondrial inhibitor positive controls were included on each Master compound plate.
(§2) Total amounts of superoxide and H2O2 production were determined fluorometrically as H2O2, without distinguishing between them, in the presence of exogenous superoxide dismutase (25 units/mL final), horseradish peroxidase (1 unit/mL final), and Amplex UltraRed (25 μM final) as described (Affourtit, C. et al. (2012) Measurement of proton leak and electron leak in isolated mitochondria. Methods Mol. Biol. 810: 165-82). Just prior to use, a bulk 3.3X solution was made in standard buffer and distributed into a 2 mL deep well 96-well transfer plate.
To assess the effects of a compound on ROS production from the flavin binding site of complex I (IF), Start Solution containing 5 mM glutamate, 5 mM malate and 4 μM rotenone was distributed into standard 96-well transfer plates. A Biomek FX workstation was programmed to dispense solutions into black 96-well assay plates. Solutions were dispensed to all assay plates in the following order: ROS Detection solution described in Example 3, Mitochondria solution described in Example 1 to a final concentration of 0.3 mg/ml, and Compound dilutions described in Example 2. Duplicate assay plates were made and each was initiated by the addition of 3.3X Start solution containing 5 mM glutamate, 5 mM malate and 4 μM rotenone. Plates were incubated in the dark at room temperature for 30-40 minutes before acquiring endpoint fluorescence using a Victor 3V plate reader (Perkin Elmer) equipped with 550/590 nm excitation/emission filters.
The fluorescence values in each well were scaled as the percent change from the intra-plate DMSO controls with the appropriate inhibitor positive controls defined as −100%. Following initial scaling, intra-plate normalized values were subjected to Tukey's two-way median polish to remove row and column dependent positional effects (Malo, N. et al. (2006) Statistical practice in high-throughput screening data analysis. Nat. Biotechnol. 24(2): 167-75).

[5] = system: ubiquinone binding site of complex I (IQ); experiment: High-throughput screen: ROS production from ubiquinone binding site of complex I (IQ), isolated skeletal muscle mitochondria; type: biochemical, rat; settings: percent change in ROS from DMSO controls
Experimental: as §1
Compounds (10 mM in DMSO) were randomly selected from a library of 24,000 compounds obtained from ChemBridge and curated by the lab of Robert Hughes at the Buck Institute. Master screening plates were prepared using a Biomek FX liquid handling workstation (Beckman) to transfer 1 μL of each compound into individual wells on 96-well storage plates (80 compounds per plate). Master plates were sealed with foil and stored at −80° C. Just prior to use, plates were brought to room temperature and diluted 300-fold with standard buffer (13.3X=33.3 μM). To monitor the performance of each assay throughout screening and to provide intra-plate normalization reference points, DMSO negative controls and known mitochondrial inhibitor positive controls were included on each Master compound plate.
as §2
To assess the effects of a compound on ROS production from the ubiquinone binding site of complex I (IQ), Start Solution containing 5 mM succinate was distributed into standard 96-well transfer plates. A Biomek FX workstation was programmed to dispense solutions into black 96-well assay plates. Solutions were dispensed to all assay plates in the following order: ROS Detection solution described in Example 3, Mitochondria solution described in Example 1 to a final concentration of 0.1 mg/ml, and Compound dilutions described in Example 2. Duplicate assay plates were made and each was initiated by the addition of 3.3X Start solution containing 5 mM succinate. Plates were incubated in the dark at room temperature for 30-40 minutes before acquiring endpoint fluorescence using a Victor 3V plate reader (Perkin Elmer) equipped with 550/590 nm excitation/emission filters.
The fluorescence values in each well were scaled as the percent change from the intra-plate DMSO controls with the appropriate inhibitor positive controls defined as −100%. Following initial scaling, intra-plate normalized values were subjected to Tukey's two-way median polish to remove row and column dependent positional effects (Malo et al, 2006).

[6] = molecular target: T4, succinate dehydrogenase/complex II (SDH) (Rattus norvegicus, UniProt P21913+Q641Z9+Q6PCT8+Q920L2); experiment: High-throughput screen: ROS production from succinate dehydrogenase/complex II (SDH); type: biochemical; settings: for inhibition at 2.5 µM: Table 7; for inhibition at 2.5 µM / SDH: percent change in ROS from DMSO controls
T4 construct: freshly isolated muscle mitochondria were assayed; from tissue; host or cells: rat skeletal muscle mitochondria (Wistar, Harlan Laboratories)

[7] = Table 7, percent change in ROS from DMSO controls, read-out: IIIQO
[8] = percent change in ROS from DMSO controls
[9] = Table 9, percent change in ROS from DMSO controls, read-out: IIIQo
[10] = Table 4, 5 mM succinate, 4 μM rotenone, 2.5 μM antimycin A, compounds 2.5 μM, percent change from DMSO, read-out: % Reduction in ROS production (IIIQO)

T3 sequence (Q5XIH3 21-464 limits assumed, one chain of several): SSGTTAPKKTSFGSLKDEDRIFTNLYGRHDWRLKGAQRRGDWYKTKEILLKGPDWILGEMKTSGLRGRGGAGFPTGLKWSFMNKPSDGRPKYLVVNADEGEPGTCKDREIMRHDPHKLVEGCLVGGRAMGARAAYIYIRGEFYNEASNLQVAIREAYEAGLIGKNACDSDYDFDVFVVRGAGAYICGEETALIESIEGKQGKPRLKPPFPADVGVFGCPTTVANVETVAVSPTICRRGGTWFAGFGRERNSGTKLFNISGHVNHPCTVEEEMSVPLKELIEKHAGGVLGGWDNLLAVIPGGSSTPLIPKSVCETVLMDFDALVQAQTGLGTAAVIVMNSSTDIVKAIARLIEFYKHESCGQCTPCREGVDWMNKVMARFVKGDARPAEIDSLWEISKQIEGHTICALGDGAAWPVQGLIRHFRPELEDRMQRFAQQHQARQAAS
T4 sequence (Q920L2 35-656): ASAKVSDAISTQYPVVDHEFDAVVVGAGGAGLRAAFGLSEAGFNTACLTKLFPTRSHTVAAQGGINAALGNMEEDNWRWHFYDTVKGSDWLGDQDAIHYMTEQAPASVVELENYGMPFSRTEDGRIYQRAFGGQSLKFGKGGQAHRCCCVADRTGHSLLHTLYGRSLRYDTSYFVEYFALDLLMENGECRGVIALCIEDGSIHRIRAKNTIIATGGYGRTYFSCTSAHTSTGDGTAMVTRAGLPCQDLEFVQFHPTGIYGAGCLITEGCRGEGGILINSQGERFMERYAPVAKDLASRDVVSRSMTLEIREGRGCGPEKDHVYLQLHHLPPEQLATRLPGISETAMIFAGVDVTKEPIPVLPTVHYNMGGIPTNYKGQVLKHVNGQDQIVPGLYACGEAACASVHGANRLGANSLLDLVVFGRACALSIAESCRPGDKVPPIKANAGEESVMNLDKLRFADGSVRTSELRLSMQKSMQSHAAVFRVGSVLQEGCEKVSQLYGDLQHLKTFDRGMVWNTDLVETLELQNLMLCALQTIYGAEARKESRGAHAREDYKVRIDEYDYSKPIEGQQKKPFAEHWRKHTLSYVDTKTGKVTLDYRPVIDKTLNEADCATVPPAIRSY
T4 sequence (P21913 31-282): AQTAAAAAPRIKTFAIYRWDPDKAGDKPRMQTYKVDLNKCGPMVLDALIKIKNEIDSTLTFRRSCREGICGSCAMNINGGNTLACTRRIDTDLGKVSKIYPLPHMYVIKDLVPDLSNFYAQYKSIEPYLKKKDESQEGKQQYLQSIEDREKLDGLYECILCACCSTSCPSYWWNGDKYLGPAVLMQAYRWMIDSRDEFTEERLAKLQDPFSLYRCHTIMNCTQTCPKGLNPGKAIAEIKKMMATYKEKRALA
T4 sequence (Q641Z9 30-169 limits assumed): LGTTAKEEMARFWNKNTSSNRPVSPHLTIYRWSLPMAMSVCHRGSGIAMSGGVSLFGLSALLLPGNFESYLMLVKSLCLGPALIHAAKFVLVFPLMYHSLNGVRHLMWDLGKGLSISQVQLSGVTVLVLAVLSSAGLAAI
T4 sequence (Q6PCT8 57-159): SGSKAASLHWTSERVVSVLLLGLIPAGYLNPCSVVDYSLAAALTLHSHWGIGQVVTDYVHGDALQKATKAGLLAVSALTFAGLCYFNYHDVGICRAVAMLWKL

inhibition at 2.5 µM [1] [%] | inhibition [1] [%] | GPDH ([1]; Table 8) | inhibition at 2.5 µM [3, 7] [%] | IIIQO [3, 8] | inhibition at 2.5 µM [6] [%] | Structure (SMILES) | inhibition at 2.5 µM [4] [%] | IF ([4]; Table 8) | IQ ([5]; Table 7) | IQ ([5]; Table 8) | further results
13.4 | 13.4 | −13.4 | 5.7 | −5.7 | – | CCN1CCN(C/C=C/c2ccc(N(C)C)cc2)CC1 [Compound 48] | 6.5 | −6.5 | −2.9 | −2.9 | GPDH ([1]; Table 9): −13.4; ΔΨm ([2]; Table 8, glutamate): 0.0; ΔΨm ([2]; Table 9, glutamate): 0.0; inhibition at 2.5 µM [3, 9]: 5.7%; IF ([4]; Table 9): −6.5; IQ ([5]; Table 9): −2.9
11.1 | 32.1 | – | -1.1 | – | 3.7 | CCCC(=O)Nc1ccc(-c2nc3cc4ccccc4cc3[nH]2)cc1 [Compound 68] | 1.3 | – | −23.0 | – | –
– | -3.4 | 3.4 | 23.2 | −23.2 | – | COC(=O)c1ccc(CN(CCc2ccccc2)Cc2ccccc2)cc1 [Compound 43] | 4.4 | −4.4 | −0.5 | −0.5 | GPDH ([1]; Table 9): 3.4; ΔΨm ([2]; Table 8, glutamate): 0.6; ΔΨm ([2]; Table 9, glutamate): 0.6; inhibition at 2.5 µM [3, 10]: 23.2%; inhibition at 2.5 µM [3, 9]: 23.2%; IF ([4]; Table 9): −4.4; IQ ([5]; Table 9): −0.5
4.4 | 48.3 | – | -1.1 | – | 3.4 | O=C(O)CCC(=O)Nc1cccc(-c2nc3ccccc3[nH]2)c1 [Compound 60] | 4.2 | – | −43.9 | – | –
26 | 0 | – | 0.4 | – | -4.6 | Cc1ccc2[nH]c(-c3ccc(NC(=O)CCC(=O)O)cc3)nc2c1 [Compound 70] | 2.2 | – | −0.2 | – | –
– | – | −1 | – | −19 | – | CCCCN(Cc1ccccc1)Cc1cc(OC)c(OC)cc1[N+](=O)[O-] [Compound 79] | – | −17 | – | 0 | ΔΨm ([2]; Table 8, glutamate): 1; % Reduction in ROS production (IIIQO) ([3]; Table 4, 5 mM succinate, 4 μM rotenone, 2.5 μM antimycin A, compounds 2.5 μM, percent change from DMSO): −19%; % Reduction in ROS production (IF) ([4]; Table 3, 5 mM glutamate, 5 mM malate, 4 μM rotenone, compounds 2.5 μM, percent change from DMSO, positive control −100%): −17%
– | 4.7 | −4.7 | 26.8 | −26.8 | – | Fc1ccc(N2CCN(CC(c3ccccc3)c3ccccc3)CC2)cc1 [Compound 39] | 0.9 | −0.9 | 2.7 | 2.7 | GPDH ([1]; Table 9): −4.7; ΔΨm ([2]; Table 8, glutamate): 0.5; ΔΨm ([2]; Table 9, glutamate): 0.5; inhibition at 2.5 µM [3, 10]: 26.8%; inhibition at 2.5 µM [3, 9]: 26.8%; IF ([4]; Table 9): −0.9; IQ ([5]; Table 9): 2.7
1.2 | 4.4 | – | 1.3 | – | 5.1 | CC(=O)Nc1ccc(-c2nc3ccccc3[nH]2)cc1 [Compound 59] | 3 | – | −12.3 | – | –
– | 0.6 | −0.6 | -6.3 | 6.3 | 87.6 | CC1CC(C)(C)N(C=O)c2ccccc21 (stereo not shown) [Compound 71] | -7 | 7.0 | 1.6 | 1.6 | GPDH ([1]; Table 9): −0.6; % Reduction in ROS Production (SDH) ([6]; Table 5, 15 μM palmitoyl carnitine, 2.5 μM antimycin A, 2 μM myxothiazol, compounds 2.5 μM, percent change from DMSO): −87.6%; SDH ([6]; Table 8): −87.6; SDH ([6]; Table 9): −87.6; inhibition at 2.5 µM [3, 9]: -6.3%; IF ([4]; Table 9): 7.0; IQ ([5]; Table 9): 1.6
-0.2 | 1.2 | – | -0.8 | – | -1.5 | O=C(O)CCC(=O)Nc1ccc(Cl)cc1 [Compound 58] | -0.1 | – | −6.4 | – | –
-0.9 | -3.3 | – | -2.5 | – | -4.4 | CCCCCCNC(=O)CCC(=O)O [Compound 54] | -8 | – | 2.3 | – | –
32.1 | 26 | – | -5.5 | – | 6.3 | O=C(O)CCC(=O)Nc1ccc(-c2nc3cc(C(=O)c4ccccc4)ccc3[nH]2)cc1 [Compound 69] | 1.8 | – | −20.1 | – | –
-3.3 | -1.5 | – | -3.3 | – | -1.5 | c1ccc2[nH]c(-c3ccc(-c4nc5ccccc5[nH]4)cc3)nc2c1 [Compound 55] | 1.9 | – | −3.9 | – | –
-8.2 | 13 | – | 1 | – | -9.8 | CCOc1ccc(C(=O)Nc2ccc(-c3nc4ccccc4[nH]3)cc2)cc1 [Compound 64] | 3.8 | – | −15.3 | – | –
1.7 | -8.2 | – | -1.8 | – | -3.5 | O=C(Nc1ccc(-c2nc3ccccc3[nH]2)cc1)c1ccco1 [Compound 63] | -0.9 | – | −6.9 | – | –
– | -3.7 | 3.7 | 31.3 | −31.3 | – | CCCCN(Cc1ccccc1)Cc1cc(Cl)cc(Cl)c1O [Compound 38] | 1.8 | −1.8 | −3.9 | −3.9 | GPDH ([1]; Table 9): 3.7; ΔΨm ([2]; Table 8, glutamate): 0.3; ΔΨm ([2]; Table 9, glutamate): 0.3; inhibition at 2.5 µM [3, 10]: 31.3%; inhibition at 2.5 µM [3, 9]: 31.3%; IF ([4]; Table 9): −1.8; IQ ([5]; Table 9): −3.9
-1.8 | 11.1 | – | 6.5 | – | 16.8 | Cc1ccc(NC(=O)CCC(=O)O)cc1 [Compound 67] | 10.1 | – | −11.7 | – | –
-1.5 | 0.8 | – | -1.4 | – | 2.9 | C=C(C)C(=O)Nc1ccc(-c2nc3ccccc3[nH]2)cc1 [Compound 56] | -0.3 | – | −0.3 | – | –
0.8 | -0.2 | – | -0.4 | – | -4.2 | O=C(O)CCC(=O)Nc1ccc(-c2nc3cc(NC(=O)CCC(=O)O)ccc3[nH]2)cc1 [Compound 57] | -1.7 | – | 3.1 | – | –
1.9 | -1.8 | – | 1.2 | – | 2.5 | O=C(Nc1ccc(-c2nc3ccccc3[nH]2)cc1)C1CC1 [Compound 66] | 0.2 | – | −2.8 | – | –
0 | -0.9 | – | -0.8 | – | 0.3 | COC(=O)CCC(=O)Nc1ccc(C)cc1 [Compound 53] | -1.3 | – | 0.1 | – | –
13 | 1.9 | – | 1 | – | -0.2 | O=C(O)CCC(=O)Nc1ccc(-c2nc3ccccc3s2)cc1 [Compound 65] | 1.3 | – | −11.0 | – | –

Structure (SMILES) | inhibition at 2.5 µM [1] [%] | inhibition [1] [%] | GPDH ([1]; Table 8) | inhibition at 2.5 µM [3, 7] [%] | IIIQO [3, 8] | inhibition at 2.5 µM [6] [%] | inhibition at 2.5 µM [4] [%] | IF ([4]; Table 8) | IQ ([5]; Table 7) | IQ ([5]; Table 8) | further results
COc1cccc(CCNC2C3CC4CC(C3)CC2C4)c1 (stereo not shown) [Compound 26] | – | 3.3 | −3.3 | 1.8 | −1.8 | – | 19.6 | −19.6 | −0.8 | −0.8 | GPDH ([1]; Table 9): −3.3; ΔΨm ([2]; Table 8, glutamate): −0.7; ΔΨm ([2]; Table 9, glutamate): −0.7; inhibition at 2.5 µM [3, 9]: 1.8%; IF ([4]; Table 9): −19.6; IQ ([5]; Table 9): −0.8

From patent US20140128352A1, “COMPOUNDS AND METHODS FOR MODULATING MITOCHONDRIAL METABOLISM AND REACTIVE OXYGEN SPECIES PRODUCTION” (Buck Institute for Research on Aging, priority 2012, published 2014)
